Data taken from ChEMBL document CHEMBL1909046, “DrugMatrix in vitro pharmacology data”.

Tests used:
Cytochrome P450 3A4 = Cytochrome P450 3A4 (Homo sapiens, UniProt P08684); details: bti-tn-5b1-4; also: in other assays of this panel Not Active means under 50% inhibition at 10 µM
[1] = biological target: T1, Alpha-1A adrenergic receptor (Rattus norvegicus, UniProt P43140); assay: DRUGMATRIX: Alpha-1A adrenergic receptor radioligand binding (ligand: prazosin); type: cell membranes, Wistar, Submaxillary gland, Membrane; details: Not Active = under 50% inhibition at 10 µM
T1 sequence (P43140 whole entry): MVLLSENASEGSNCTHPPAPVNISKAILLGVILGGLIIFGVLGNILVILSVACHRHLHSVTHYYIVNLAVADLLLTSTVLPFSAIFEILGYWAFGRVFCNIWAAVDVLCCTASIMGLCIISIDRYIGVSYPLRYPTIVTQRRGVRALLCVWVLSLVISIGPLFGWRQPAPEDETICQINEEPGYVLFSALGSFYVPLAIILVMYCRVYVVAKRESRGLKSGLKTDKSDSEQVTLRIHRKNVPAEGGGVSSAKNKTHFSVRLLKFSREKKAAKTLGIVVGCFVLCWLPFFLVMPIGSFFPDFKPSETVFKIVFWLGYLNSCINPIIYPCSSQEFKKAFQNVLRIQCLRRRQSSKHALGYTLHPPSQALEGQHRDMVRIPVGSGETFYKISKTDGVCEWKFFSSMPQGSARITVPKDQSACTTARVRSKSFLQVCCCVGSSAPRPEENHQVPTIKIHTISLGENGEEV

[2] = DRUGMATRIX: Platelet-Derived Growth Factor (PDGF) radioligand binding (ligand: [125I] PDGF); type: cell-based; details: nih3t3; Not Active = under 50% inhibition at 10 µM
[3] = biological target: Protein kinase C alpha type (Homo sapiens, UniProt P17252); type: cell-based; details: sf9;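 also: inhibition of PKCalpha kinase activity measured in an enzyme assay with histone as the phosphorylation substrate; in other assays of this panel Not Active means under 50% inhibition at 10 µM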
[4] = biological target: T2, Alpha-1D adrenergic receptor (Homo sapiens, UniProt P25100); type: cell membranes, HEK293, Membrane; details: hek293; also: in other assays of this panel Not Active means under 50% inhibition at 10 µM
T2 sequence (P25100 whole entry): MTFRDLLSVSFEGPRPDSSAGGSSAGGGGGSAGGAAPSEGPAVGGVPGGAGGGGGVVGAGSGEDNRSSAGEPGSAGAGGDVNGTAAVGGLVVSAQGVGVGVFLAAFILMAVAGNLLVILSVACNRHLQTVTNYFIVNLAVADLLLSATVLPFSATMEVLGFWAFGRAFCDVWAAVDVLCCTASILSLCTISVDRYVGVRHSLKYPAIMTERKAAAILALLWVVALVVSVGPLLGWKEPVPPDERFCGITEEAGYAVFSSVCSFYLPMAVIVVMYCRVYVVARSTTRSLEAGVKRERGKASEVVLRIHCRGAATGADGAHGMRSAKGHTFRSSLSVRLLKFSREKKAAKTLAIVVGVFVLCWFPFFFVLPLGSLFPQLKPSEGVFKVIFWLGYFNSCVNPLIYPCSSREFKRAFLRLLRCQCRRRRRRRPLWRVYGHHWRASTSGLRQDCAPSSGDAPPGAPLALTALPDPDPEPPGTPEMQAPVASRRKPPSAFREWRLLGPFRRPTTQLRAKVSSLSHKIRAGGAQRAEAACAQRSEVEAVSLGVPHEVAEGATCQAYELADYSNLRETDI

Progesterone receptor = biological target: T3, Progesterone receptor (Bos taurus, UniProt Q690N0); assay: DRUGMATRIX: Progesterone radioligand binding (ligand: [3H] R-5020); type: tissue-based, Uterus; details: Not Active = under 50% inhibition at 10 µM
T3 sequence (Q690N0 whole entry): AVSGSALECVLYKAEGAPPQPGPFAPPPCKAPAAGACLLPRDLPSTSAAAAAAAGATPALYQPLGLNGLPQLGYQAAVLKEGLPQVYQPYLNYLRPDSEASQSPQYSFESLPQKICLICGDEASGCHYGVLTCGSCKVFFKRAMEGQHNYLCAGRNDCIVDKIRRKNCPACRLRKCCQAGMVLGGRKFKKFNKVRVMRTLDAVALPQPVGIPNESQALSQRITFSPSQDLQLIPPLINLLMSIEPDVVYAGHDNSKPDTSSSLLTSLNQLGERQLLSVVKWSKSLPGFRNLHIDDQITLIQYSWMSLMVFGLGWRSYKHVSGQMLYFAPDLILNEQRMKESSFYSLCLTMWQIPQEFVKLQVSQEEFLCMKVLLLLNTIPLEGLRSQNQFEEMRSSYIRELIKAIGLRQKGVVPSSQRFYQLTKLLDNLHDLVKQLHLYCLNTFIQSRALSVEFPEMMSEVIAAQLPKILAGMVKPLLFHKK

[5] = biological target: T4, C-X-C chemokine receptor type 1 (Homo sapiens, UniProt P25024); also: in other assays of this panel Not Active means under 50% inhibition at 10 µM
T4 sequence (P25024 whole entry): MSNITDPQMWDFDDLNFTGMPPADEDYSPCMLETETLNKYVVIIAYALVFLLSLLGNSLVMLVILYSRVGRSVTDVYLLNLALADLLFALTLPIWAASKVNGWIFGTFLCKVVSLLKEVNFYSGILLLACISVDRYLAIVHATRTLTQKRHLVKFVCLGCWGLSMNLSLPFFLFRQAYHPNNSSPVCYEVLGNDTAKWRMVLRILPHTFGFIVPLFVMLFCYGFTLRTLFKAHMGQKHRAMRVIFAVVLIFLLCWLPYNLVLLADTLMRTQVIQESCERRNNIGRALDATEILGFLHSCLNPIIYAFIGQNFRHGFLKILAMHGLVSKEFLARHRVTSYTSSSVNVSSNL

Cytochrome P450 3A4, sequence (P08684 whole entry): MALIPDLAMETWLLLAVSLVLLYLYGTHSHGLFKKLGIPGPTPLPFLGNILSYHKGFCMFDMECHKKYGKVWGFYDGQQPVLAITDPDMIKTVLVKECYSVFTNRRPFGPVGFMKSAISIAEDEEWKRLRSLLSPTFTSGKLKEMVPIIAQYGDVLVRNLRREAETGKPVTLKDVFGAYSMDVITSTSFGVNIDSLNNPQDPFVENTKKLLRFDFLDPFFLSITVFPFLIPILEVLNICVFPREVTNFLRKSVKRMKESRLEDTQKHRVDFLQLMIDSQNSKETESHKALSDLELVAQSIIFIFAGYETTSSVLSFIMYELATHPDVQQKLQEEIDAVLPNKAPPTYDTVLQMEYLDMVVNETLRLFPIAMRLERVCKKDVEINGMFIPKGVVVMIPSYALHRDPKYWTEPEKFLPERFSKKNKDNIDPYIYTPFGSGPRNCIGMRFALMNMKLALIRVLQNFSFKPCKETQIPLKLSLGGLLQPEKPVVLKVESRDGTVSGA

POLYVINYL ALCOHOL
Not Active: IC50 (Cytochrome P450 3A4) | Ki (Cytochrome P450 3A4) | IC50 [1] | Ki [1] | IC50 [2] | Ki [2] | IC50 [3] | Ki [3] | IC50 [4] | Ki [4] | IC50 (Progesterone receptor) | Ki (Progesterone receptor) | IC50 [5] | Ki [5]
